Measurements reported in ChEMBL document CHEMBL1201862, “PubChem BioAssay data set” (2004).
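Following 48 hours of exposure in 96-well plates, responses at five concentrations were used to interpolate endpoints linearly. The concentration for 50% growth inhibition is given as GI50.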 Calls of active or inactive are those of the source. Rule as the data show it: active = GI50 up to about 1.1 µM and inactive = higher.

What was measured:
Assay in all cases: inhibition of tumour cell growth, NCI panel, 48 h
[1] = test system: HT-29
[2] = test system: SF-539
[3] = test system: A549
[4] = test system: HCT-116
[5] = test system: HCT-15
[6] = test system: OVCAR-3
[7] = test system: OVCAR-5
[8] = test system: KM-20L2
[9] = test system: SK-MEL-2
[10] = test system: TK-10
[11] = test system: EKVX
[12] = test system: NCI-H522
[13] = test system: SF-268
[14] = test system: MOLT-4
[15] = test system: SF-295
[16] = test system: T47D
[17] = test system: MDA-MB-435
[18] = test system: PC-3
[19] = test system: MCF7
[20] = test system: DU-145

Row | Structure (SMILES) | GI50 [1] | GI50 [2] | GI50 [3] | GI50 [4] | GI50 [5] [µM] | GI50 [6] | GI50 [7] | GI50 [8] | GI50 [9] | GI50 [10] | GI50 [11] | GI50 [12] | GI50 [13] | GI50 [14] | GI50 [15] | GI50 [16] | GI50 [17] | GI50 [18] | GI50 [19] | GI50 [20]
1 | CCC(=O)OC1CCn2c1nc1c2C(=O)C(C)=C(NC(C)=O)C1=N (stereo unspecified) | 1.61 µM (inactive) | 1.74 µM (inactive) | 3.02 µM (inactive) | 0.849 µM (active) | 2.25 | 0.453 µM (active) | 1.87 µM (inactive) | 1.73 µM (inactive) | 1.75 µM (inactive) | 3.72 µM (inactive) | 2.63 µM (inactive) | 1.39 µM (inactive) | 2.54 µM (inactive) | 1.54 µM (inactive) | 2.02 µM (inactive) |  |  |  |  | 
2 | Cn1cnc([N+](=O)[O-])c1Sc1nccn1-c1cccc2ccccc12 | 23.9 µM (inactive) | 25.4 µM (inactive) | 35 µM (inactive) | 19.7 µM (inactive) |  | 22.9 µM (inactive) | 23.2 µM (inactive) | 64.1 µM (inactive) | 14.1 µM (inactive) | 22 µM (inactive) | 26.9 µM (inactive) | 8.69 µM (inactive) | 24.8 µM (inactive) | 12.9 µM (inactive) | 48.4 µM (inactive) |  |  |  |  | 
3 | Cn1cc2ccccc2c1-c1nc(F)nc(OCC(=O)[C@H]2CCC3[C@@H]4CCC5=CC(=O)CC[C@]5(C)C4[C@@H](O)C[C@@]32C)n1 (stereo partly specified) | 21.6 µM (inactive) | 17.8 µM (inactive) | 32.4 µM (inactive) | 11.1 µM (inactive) | 7.18 | 17 µM (inactive) | 37.8 µM (inactive) | 26.1 µM (inactive) | 13.2 µM (inactive) | 23.1 µM (inactive) | 23.4 µM (inactive) | 15.2 µM (inactive) | 13.1 µM (inactive) | 4.83 µM (inactive) | 23.8 µM (inactive) |  |  |  |  | 
4 | CN(C)CCS/C(=N\c1ccccc1)N1C=COC=C1 | 43.7 µM (inactive) | 29.2 µM (inactive) | > 100 µM (inactive) | 23.6 µM (inactive) | 20.5 | 46 µM (inactive) | > 66.5 µM (inactive) | 47.1 µM (inactive) | 17.3 µM (inactive) | 47.5 µM (inactive) | 86.1 µM (inactive) | 17.4 µM (inactive) | 15.8 µM (inactive) | > 84.7 µM (inactive) | 99.8 µM (inactive) | 15.3 µM (inactive) | 18.9 µM (inactive) | 34.4 µM (inactive) | 17.9 µM (inactive) | 75.9 µM (inactive)
5 | O=C(Cn1ccnc1[N+](=O)[O-])c1ccccc1 | > 100 µM (inactive) | > 100 µM (inactive) | > 100 µM (inactive) |  | > 100 | > 100 µM (inactive) | > 100 µM (inactive) | > 100 µM (inactive) | > 100 µM (inactive) | > 100 µM (inactive) | > 100 µM (inactive) | > 100 µM (inactive) | > 100 µM (inactive) | > 100 µM (inactive) | > 100 µM (inactive) |  |  |  |  | 
6 | C=C(COC(C)=O)CC(/C=C(\C)CC/C=C(\C)CO)OC(C)=O (stereo unspecified) | > 100 µM (inactive) | > 100 µM (inactive) | > 100 µM (inactive) | > 100 µM (inactive) | > 100 | > 100 µM (inactive) | > 100 µM (inactive) | > 100 µM (inactive) | > 100 µM (inactive) | > 100 µM (inactive) | > 100 µM (inactive) | > 100 µM (inactive) | > 100 µM (inactive) | 35.1 µM (inactive) | > 100 µM (inactive) |  |  |  |  | 
7 | COc1ccc2[nH]c3c4c(cc(-c5ccccc5)c3c2c1)C(=O)N(c1ccccc1)C4=O | 22.7 µM (inactive) | 2 µM (inactive) | 13.8 µM (inactive) | 29.2 µM (inactive) | 41.4 | 17.9 µM (inactive) | > 100 µM (inactive) | > 100 µM (inactive) | 21.3 µM (inactive) | 64.9 µM (inactive) | 38.6 µM (inactive) | 8.24 µM (inactive) | 23.1 µM (inactive) | 19.5 µM (inactive) | 4.84 µM (inactive) |  |  |  |  | 
8 | COc1cc2c(c(OC)c1)C(=O)C(=O)C(CC1(C)OCCCO1)=C2 | 18.4 µM (inactive) | 17.5 µM (inactive) | 10.9 µM (inactive) | 4.38 µM (inactive) | 6.25 | 3.8 µM (inactive) | 22.9 µM (inactive) | 17.9 µM (inactive) | 16 µM (inactive) | 6.14 µM (inactive) | 15.9 µM (inactive) | 1.4 µM (inactive) | 14.7 µM (inactive) | 3.27 µM (inactive) | 13.9 µM (inactive) |  |  |  |  | 
9 | Cc1cc([N+](=O)[O-])ccc1Sc1c2ccccc2nc2ccccc12 |  | 28.4 µM (inactive) | 64.6 µM (inactive) | 22.5 µM (inactive) | 22.5 | 41.4 µM (inactive) | > 100 µM (inactive) | 31.4 µM (inactive) | 23.1 µM (inactive) | 57 µM (inactive) | 39 µM (inactive) | 18.1 µM (inactive) | 41 µM (inactive) | 15.7 µM (inactive) | 39.4 µM (inactive) |  |  |  |  | 
10 | COC(=O)c1c2cccccc-2c(Cc2c3cccccc-3c(C(=O)OC)c2O)c1O | > 100 µM (inactive) | > 100 µM (inactive) | > 100 µM (inactive) | > 100 µM (inactive) | > 100 | > 100 µM (inactive) | > 100 µM (inactive) | > 100 µM (inactive) | > 100 µM (inactive) | > 100 µM (inactive) | > 100 µM (inactive) | > 100 µM (inactive) | > 100 µM (inactive) | > 100 µM (inactive) | > 100 µM (inactive) |  |  |  |  | 
11 | CC(=O)N1CC(=O)NC1=S | > 100 µM (inactive) | > 100 µM (inactive) | > 100 µM (inactive) | > 100 µM (inactive) | > 100 | > 100 µM (inactive) | > 100 µM (inactive) | > 100 µM (inactive) | > 100 µM (inactive) | > 100 µM (inactive) | > 100 µM (inactive) | > 100 µM (inactive) | > 100 µM (inactive) | > 100 µM (inactive) | > 100 µM (inactive) |  |  |  |  | 
12 | CC(=O)c1cccc(NC2C(N)C(NC(=O)N(C)C)(C(C)O)C(C)(O)C2(O)COC(=O)c2c(C)cccc2O)c1 (stereo unspecified) | < 0.001 µM (active) | < 0.001 µM (active) | < 0.001 µM (active) | < 0.001 µM (active) | 0.00296 | 0.01 µM (active) | < 0.001 µM (active) | 0.01 µM (active) | 0.01 µM (active) | < 0.001 µM (active) | < 0.001 µM (active) | 0.01 µM (active) | 0.0263 µM (active) | < 0.001 µM (active) | 0.00107 µM (active) | < 0.001 µM (active) | < 0.001 µM (active) |  | < 0.001 µM (active) | < 0.001 µM (active)
13 | Nc1nc(Cl)cc(NCCCCCNc2cc(Cl)nc(N)n2)n1 | > 100 µM (inactive) | > 100 µM (inactive) | 42 µM (inactive) | 30.3 µM (inactive) | 73.6 | 42 µM (inactive) | 37.4 µM (inactive) | > 100 µM (inactive) | > 100 µM (inactive) | > 100 µM (inactive) | 86.5 µM (inactive) | 20 µM (inactive) | 29.1 µM (inactive) | 7.48 µM (inactive) | 29.2 µM (inactive) |  |  |  |  | 
14 | CCOc1cc2c(cc1OC)c[n+](C)c1c3cc(OC)c(OC)cc3ccc21 | > 100 µM (inactive) | > 100 µM (inactive) | > 100 µM (inactive) | 49.1 µM (inactive) | > 75.2 | > 100 µM (inactive) | > 49.1 µM (inactive) | > 100 µM (inactive) | 33.3 µM (inactive) | 59.4 µM (inactive) | > 100 µM (inactive) | > 52.1 µM (inactive) | > 93.3 µM (inactive) | > 81.3 µM (inactive) | > 100 µM (inactive) |  |  |  |  | 
